Experimental data published in US20090172826A1, “Model System for TCR (ZETA) Chain Downregulation” (priority 2003, published 2009).

B1: OVA: chicken ovalbumin adsorbed to Al(OH)3 (Alum), then in PBS; elicits a TH2 response (protein, UniProt P01012 2-386, looked up)
Ovalbumin: GSIGAASMEFCFDVFKELKVHHANENIFYCPIAIMSALAMVYLGAKDSTRTQINKVVRFDKLPGFGDSIEAQCGTSVNVHSSLRDILNQITKPNDVYSFSLASRLYAEERYPILPEYLQCVKELYRGGLEPINFQTAADQARELINSWVESQTNGIIRNVLQPSSVDSQTAMVLVNAIVFKGLWEKAFKDEDTQAMPFRVTEQESKPVQMMYQIGLFRVASMASEKMKILELPFASGTMSMLVLLPDEVSGLEQLESIINFEKLTEWTSSNVMEERKIKVYLPRMKMEEKYNLTSVLMAMGITDVFSSSANLSGISSAESLKISQAVHAAHAEINEAGREVVGSAEAGVDAASVSEEFRADHPFLFCIKHIATNAVLFFGRCVSP
modifications: adsorbed to alum
notes: chicken ovalbumin adsorbed to Al(OH)3 (Alum), then in PBS; elicits a TH2 response

Key:
splenic T cells [1] = experiment: BrdU incorporation in Thy1.2+ splenic T cells from treated mice after ex vivo activation; parameters: species or system mouse; settings: for percentage of BrdU+ T cells of total T cells: BALB/c mice
splenic T cells [2] = experiment: CFSE division of splenic T cells from treated mice after ex vivo activation; format: in vivo, mouse; settings: BALB/c mice
TCR ζ chain [3] = experiment: TCR ζ chain expression in T cells of antigen-treated mice (immunoblot, FACS, confocal); format: in vivo, mouse; settings: full repeated-injection regimen, wild-type mice, versus control mice
[4] = tested on: splenocytes isolated from P. gingivalis-treated mice; format: cell-based, mouse; settings: NH4Cl 20 mM 20 h or bafilomycin A1 5 h at 37° C.
TCR ζ chain [5] = experiment: In vitro incubation of isolated T cells and non-T cells with IFN-γ or anti-IFN-γ, ζ chain FACS; format: cell-based, mouse; settings: IFN-γ 50 U/ml, 24 h, with or without control non-T cells
Protocol: T cells alone or mixed with the indicated non-T cell populations were incubated in vitro for 24 h in the presence or absence of IFN-γ (50 U/ml). Cells were stained for cell surface Thy 1.2 and for total ζ chain expression, as described in FIG. 1A-F, and ζ chain expression is shown.
To examine whether IFN-γ directly or indirectly affects all T cell populations in the spleen, T cells from control mice were exposed to IFN-γ in the presence or absence of control non-T cell populations in vitro.

IL-10 = IL-10 in chamber exudates by ELISA; format: in vivo, mouse; settings: 24 h after the third injection; P. gingivalis- versus OVA-treated mice
Protocol: (§1) The results are presented as the mean value of the individual mice in each treatment group. (n.d.) not detectable values of IFN-γ in the OVA-treated mice.
(§2) Serum samples were collected at day +9 of the experiment and analyzed by ELISA for the levels of P.g.- or OVA-specific IgG1 and IgG2a antibodies as previously described [Houri-Haddad et al. (2000) id ibid.]. IFN-γ and IL-10 concentrations in the chamber exudates were determined at 4 and 24 h, respectively after the third P.g. injection by two-site ELISA [Frolov, I. et al. (1998) Immunology 93, 323-8].

IFN-γ = IFN-γ in chamber exudates by ELISA; format: in vivo, mouse; settings: 4 h after the third injection
Protocol: as §1, §2

[6] = Specific serum IgG1 and IgG2a antibodies by ELISA; format: in vivo, mouse; settings: serum at day +9
Text: FIG. 6A: To determine the type of response, mice were bled at day +9 of the experiment and the titer and isotype of the specific antibodies was established by ELISA. Endpoint titers are expressed as the reciprocal values of the last dilution with an OD of 0.1 at 405 nm above maximal absorbance values of samples collected from non-immunized mice.
as §2

splenocytes = experiment: Mitogen-induced splenocyte proliferation, 3H-thymidine uptake; format: in vivo, mouse; settings: percent of response in control mice, FIG. 6c
Protocol: For mitogen-induced cell proliferation [Leshem, B. et al. (1999) J Immunol Methods 223, 249-54], splenocytes (2×10^6 cells/ml) were cultured in the presence of anti-CD3ε (145-2C11), 2.5 μg/ml concanavalin A (Con A, Biomakor, Israel), 2 ng/ml phorbol 12-myristatel3-acetate (PMA, Sigma) combined with 0.2 μM calcium ionophore (Sigma), or in medium alone. Following 48 h of incubation at 37° C., 1 μCi of [^3H]-thymidine was added to each well. Cells were harvested 8 h later using a Tomtec (USA) cell harvester and counted in a MicroBeta scintillation counter (Wallac, Finland).

[7] = activation with PMA and ionophore
[8] = activation with anti-CD3 and anti-CD28
[9] = anti-CD3 and anti-CD28, 60 hours

Row | Molecule | percentage of BrdU+ T cells of total T cells (splenic T cells [1]; activation with ConA) [%] | percentage of BrdU+ T cells of total T cells (splenic T cells [1]; [7]) [%] | percentage of BrdU+ T cells of total T cells (splenic T cells [1]; [8]) [%] | percentage of CFSE-labeled splenic T cells which divided 1-5 times (splenic T cells [2]; PMA and ionophore, 60 hours) [%] | percentage of CFSE-labeled splenic T cells which divided 1-5 times (splenic T cells [2]; [9]) [%] | ζ chain expression in splenocytes / splenic T cells (TCR ζ chain [3]) | ζ protein expression after incubation with lysosome inhibitor [4] | further results
1 | 5′-TGACTGTGAACGTTCGAGATGA-3′ [CpG-ODNs] | 39 | 80 | 9 | 57 | 6 | significant ζ chain down-regulation | – | T cell proliferation by BrdU incorporation (splenic T cells [1]; TCR-mediated stimuli (anti-CD3, Con A), compared to controls): significantly lower response
2 | 5′-TGACTGTGAAGGTTGGAGATGA-3′ (listed as DNA, chemistry not given here) [mutated CpG-ODNs, ID; NO.2] | 83 | 57 | 71 | 80 | 84 | – | – | –
3 | Cl.N [NH4Cl] | – | – | – | – | – | – | largely restored ζ protein expression | –
4 | IFN-γ | – | – | – | – | – | – | – | ζ chain expression in control T cells exposed in vitro (TCR ζ chain [5]): did not affect ζ chain expression
5 | CO/C1=C\C(C)=C\[C@@H](C)[C@@H](O)[C@@H](C)C/C(C)=C/C=C/[C@H](OC)[C@@H]([C@@H](C)[C@@H](O)[C@H](C)[C@@]2(O)C[C@@H](O)[C@H](C)[C@@H](C(C)C)O2)OC1=O [bafilomycin A] | – | – | – | – | – | – | largely restored ζ protein expression | –
6 | B1 | – | – | – | – | – | did not induce profound ζ downregulation | – | IL-10 concentration in chamber exudates (IL-10): no great difference; IFN-γ concentration in chamber exudates (IFN-γ): practically undetectable; specific serum antibodies, IgG1 and IgG2a isotype [6]: of the IgG1 isotype and not of the IgG2a isotype; function (proliferative response) of T cells in the spleen (splenocytes): normal function
